Article PMC7395068, “The evolution of strategies to minimise the risk of human drug-induced liver injury (DILI) in drug discovery and development” (Archives of Toxicology, 2020)
Where two headings read alike, the source gives them in different places.

Tests used:
[1] = Plasma free fraction (fu) and unbound Cmax (Cmax,u); assay type: in vitro ADME, human; settings: unbound plasma Cmax
HepG2 = tested on: HepG2; set-up: method as in Albrecht 2019; settings: In vitro Assay; ref Albrecht 2019; cited from earlier work
[2] = cited from earlier work
HepG2 cells [3] = settings: cited from earlier work
HepG2 cells [4] = settings: cited from earlier work; remark: listed apart in the source
[5] = tested on: THLE or HepG2 cells, isolated mitochondria, BSEP; settings: cited from earlier work
PHH [6] = settings: cited from earlier work
hLiMTs [7] = settings: cited from earlier work
PHH spheroids = settings: cited from earlier work
[8] = tested on: HepG2 C3A spheroid, BSEP, Glu/Gal in HepG2 cells, bioactivation; settings: cited from earlier work
[9] = read-out: Human plasma Cmax; total plasma Cmax.tot, median of 9 literature references; cited from earlier work
[10] = plasma free fraction; cited from earlier work
[11] = cited from earlier work; remark: listed apart in the source
PHH [12] = settings: In vitro Assay; ref Albrecht 2019; cited from earlier work
[13] = tested on: THLE-Null and THLE-3A4 cells; settings: In vitro Assay; ref Gustafsson 2014; cited from earlier work
[14] = tested on: isolated mouse liver mitochondria; settings: In vitro Assay; ref Porceddu 2012; cited from earlier work
[15] = ref Chen 2011; cited from earlier work
rBsep = settings: In vitro Assay; ref Dawson 2012; cited from earlier work
hLiMTs [16] = test: Combined HCI (HCS) and cellular ATP 3D assay in hLiMTs; settings: for AC50 / minimal effective concentration: Homo sapiens
HepaRG spheroids = test: Combined HCI (HCS) and cellular ATP 3D assay in HepaRG spheroids; settings: for AC50 / minimal effective concentration: Homo sapiens
[17] = In vitro Assay, ref Persson 2013
[18] = Modeled in vitro assays (cytotoxicity, mitochondrial dysfunction, BSEP), ref Aleo et al. 2019
[19] = In vitro Assay, ref Proctor 2017
[20] = Microtissue model structural based (HCI), combined HCS and ATP, MEC < 25 × Cmax.tot cut-off

O=C1CN(/N=C/c2ccc([N+](=O)[O-])o2)C(=O)N1 [nitrofurantoin, reference compound]
Human plasma Cmax,u [1]: 6.508 µM
Cytotoxicity HepG2 48 hrs (HepG2): +VE
DILI severity category (Chen et al. [2016]) ([2]; LTKB DILIrank category, ref Chen et al. 2016): Most
DILI severity category (Chen 2016) ([2]; human DILI classification, LTKB DILIrank, ref Chen et al. 2016): Most
DILI severity category ([2]; human DILI severity, ref Chen et al.): Most
DILI +VE (5-8), DILI -VE (-4) ([2]; ref Chen 2016): +VE
DILI severity category ([2]; ref Chen 2016): vMost-DILI-Concern
Structural based (HCI) (HepG2 cells [3]; In vitro Assay, ref O'Brien 2006): +VE
DILI in vitro assay prediction, O'Brien (2006) (HepG2 cells [3]; Structural based (HCI), HepG2, ref O'Brien et al. 2006): +VE (lowest HCI endpoint IC50 (or in the absence of dose–response < 100 µM) < 30 × total human plasma exposure levels (Cmax.tot))
Cluser analysis (HepG2 cells [4]; [17]): -VE
Structural based (HCI) (HepG2 cells [4]; [17]): +VE
DILI in vitro assay prediction, Persson (2013) (HepG2 cells [4]; Structural based (HCI), HepG2, ref Persson et al. 2013): -VE
Partition Hybrid HRM Score ([5]; In vitro Assay, ref Aleo 2019): +VE
Ro2 Hybrid HRM Score ([5]; In vitro Assay, ref Aleo 2019): +VE
Partition Hybrid HRM Score ≥4, Aleo (2019) [5, 18]: +VE (Partition Hybrid HRM Score ≥4)
Partition Hybrid HRM Score ≥8, Aleo (2019) [5, 18]: -VE
Rule of Two hybrid HRM Score ≥3, Aleo (2019) [5, 18]: +VE (Rule of Two hybrid HRM Score ≥3)
Rule of Two hybrid HRM Score ≥8, Aleo (2019) [5, 18]: -VE
PHH/100uM, Proctor (2017) (PHH [6]; 2D PHH, ATP, IC50 threshold 100 µM, ref Proctor et al. 2017): +VE (IC50 threshold of 100 µM)
PHH ATP <100uM (PHH [6]; [19]): +VE (IC50 threshold of 100 µM)
hLiMTs ATP <100uM (hLiMTs [7]; [19]): +VE (IC50 threshold of 100 µM)
hLiMTs/100uM, Proctor (2017) (hLiMTs [7]; hLiMTs, ATP, IC50 threshold 100 µM, ref Proctor et al. 2017): +VE (IC50 threshold of 100 µM)
hLiMTs ATP <20 x Cmax (PHH spheroids; In vitro Assay, ref Vorrink 2018): +VE (IC20 < 20 × Cmax.tot cut-off)
DILI in vitro assay prediction, Vorrink (2018) (PHH spheroids; PHH spheroids, ATP, 14 days, IC20 < 20 × Cmax.tot, ref Vorrink et al. 2018): +VE (IC20 < 20 × Cmax.tot cut-off)
Bayesian Machine Learning DILI prediction, Williams (2019) ([8]; Bayesian modeling, ref Williams et al. 2019): +VE
Bayesian Machine Learning ([8]; In vitro Assay, ref Williams 2019): +VE
Cmax [9]: 21 µM
fu [10]: 0.310
Assigned DILI category ([11]; Chen et al. 2016 or literature alignment, ref Chen et al. 2016): 3
In vivo DILI ([11]; […]): +VE
In vivo DILI ([11]; ref Albrecht 2019): +VE
In vivo DILI ([11]; ref Aleo 2019): +VE
In vivo DILI ([11]; ref Dawson 2012): +VE
In vivo DILI ([11]; ref Garside 2014): +VE
In vivo DILI ([11]; ref Gustafsson 2014): +VE
In vivo DILI ([11]; ref O'Brien 2006): +VE
In vivo DILI ([11]; ref Persson 2013): +VE
In vivo DILI ([11]; ref Porceddu 2012): +VE
In vivo DILI ([11]; ref Proctor 2017): +VE
In vivo DILI ([11]; ref Vorrink 2018): +VE
In vivo DILI ([11]; ref Williams 2019): +VE
Cytotoxicity PHH 48 hrs (PHH [12]): +VE
THLE-Null [13]: -VE
in vitro data EC2<=1x Cmax [14]: +VE
in vitro data EC20<=2uM [14]: -VE
DILI Score (FDA) (1-8) [15]: 8
Inhibition of rBsep cutoff<1& cmax u>.2 (rBsep): -VE
Inhibition of rBsep cutoff<3 (rBsep): -VE
AC50 (hLiMTs [16]; read-out: ATP endpoint AC50): 11.7 µM
minimal effective concentration (hLiMTs [16]; read-out: ATP endpoint MEC): 3.21 µM
AC50 (hLiMTs [16]; read-out: HCS endpoint AC50): 73.6 µM
minimal effective concentration (hLiMTs [16]; read-out: HCS endpoint MEC): 19.4 µM
DILI prediction hLiMTs (HCS-MEC) (hLiMTs [16]; [20]): +VE (MEC < 25 × Cmax.tot cut-off)
hLiMTs <25x Avg Cmax ATP (hLiMTs [16]; hLiMTs, ATP endpoint, cut-off <25x Avg Cmax): +ve
hLiMTs <100x Avg Cmaxu ATP (hLiMTs [16]; hLiMTs, ATP endpoint, cut-off <100x Avg Cmaxu): +ve (<100x Avg Cmaxu)
hLiMTs <25x Avg Cmax HCS (hLiMTs [16]; hLiMTs, HCS endpoints, cut-off <25x Avg Cmax): +ve
hLiMTs <100x Avg Cmaxu HCS (hLiMTs [16]; hLiMTs, HCS endpoints, cut-off <100x Avg Cmaxu): +ve (<100x Avg Cmaxu)
hLiMTs <25x Avg Cmax All (hLiMTs [16]; hLiMTs, all endpoints (ATP and HCS), cut-off <25x Avg Cmax): +ve
hLiMTs Cmax max All (hLiMTs [16]; hLiMTs, all endpoints, Cmax max used): +ve
hLiMTs Cmax min All (hLiMTs [16]; hLiMTs, all endpoints, Cmax min used): +ve
hLiMTs <10 uM All (hLiMTs [16]; hLiMTs, all endpoints, cut-off <10 uM): +ve (<10 uM)
hLiMTs <100x Avg Cmaxu All (hLiMTs [16]; hLiMTs, all endpoints, cut-off <100x Avg Cmaxu): +ve (<100x Avg Cmaxu)
HepaRG <25x Avg Cmax ATP (HepaRG spheroids; HepaRG, ATP endpoint, cut-off <25x Avg Cmax): +ve
HepaRG <100x Avg Cmaxu ATP (HepaRG spheroids; HepaRG, ATP endpoint, cut-off <100x Avg Cmaxu): +ve (<100x Avg Cmaxu)
HepaRG <25x Avg Cmax HCS (HepaRG spheroids; HepaRG, HCS endpoints, cut-off <25x Avg Cmax): +ve
HepaRG <100x Avg Cmaxu HCS (HepaRG spheroids; HepaRG, HCS endpoints, cut-off <100x Avg Cmaxu): +ve (<100x Avg Cmaxu)
HepaRG <25x Avg Cmax All (HepaRG spheroids; HepaRG, all endpoints (ATP and HCS), cut-off <25x Avg Cmax): +ve
HepaRG Cmax max All (HepaRG spheroids; HepaRG, all endpoints, Cmax max used): +ve
HepaRG Cmax min All (HepaRG spheroids; HepaRG, all endpoints, Cmax min used): +ve
HepaRG <10 uM All (HepaRG spheroids; HepaRG, all endpoints, cut-off <10 uM): +ve (<10 uM)
HepaRG <100x Avg Cmaxu All (HepaRG spheroids; HepaRG, all endpoints, cut-off <100x Avg Cmaxu): +ve (<100x Avg Cmaxu)
AC50 (HepaRG spheroids; HepaRG, read-out: ATP endpoint AC50): 11.6 µM
minimal effective concentration (HepaRG spheroids; HepaRG, read-out: ATP endpoint MEC): 9.27 µM
AC50 (HepaRG spheroids; HepaRG, read-out: HCS endpoint AC50): 17.5 µM
minimal effective concentration (HepaRG spheroids; HepaRG, read-out: HCS endpoint MEC): 5.59 µM
DILI prediction HepaRG spheroids (HCS-MEC) (HepaRG spheroids; [20]): +VE (MEC < 25 × Cmax.tot cut-off)
